Source: US8589175B2, “Optimization and individualization of medication selection and dosing” (Children's Hospital Medical Center, priority 2005, dated 2013)

Tests used:
CYP2C9 = assay: dosing recommendation per CYP2C9 metabolizer subgroup as percentage of usual population dose (Equations 4-6); set-up: species or system human; details: for 1 al (effect of 1 non-functional allele) / 2 al (effect of 2 non-functional alleles) / 2 al/1 al: CYP2C9; for UM (%) dosing recommendation: CYP2C9, head prints UM; for UM (%) dosing recommendation / IM (%) dosing recommendation / PM (%) dosing recommendation: percent of usual dose; for 2 al/1 al: ratio of the two effects; for IM (%) dosing recommendation: CYP2C9 intermediate metabolizers; for PM (%) dosing recommendation: CYP2C9 poor metabolizers
From the text: Determining “Minimal Dose Adjustment Units”
2C9 has 2 MDA units per non-functional allele.

CYP2C19 = assay: dosing recommendation per CYP2C19 metabolizer subgroup as percentage of usual population dose (Equations 4-6); details: human
From the text: Assuming the goal is to maintain the same AUC for all three subpopulations of patients, the following subpopulation dosing relationships hold: DPM=DEM*(AUCEM/AUCPM) OR DPM=DEM*R if R=(AUCEM/AUCPM) (Equation 2) DIM=DEM*(AUCEM/AUCIM) OR DIM=DEM*S if S=(AUCEM/AUCIM) (Equation 3)
By substituting equations 2 and 3 into equation 1, and then rearranging the equation to solve for the percent dose adjustment needed for each subgroup relative to the population dose: DEM(%)=100/(fEM+fIM*S+fPM*R) (Equation 4) DPM(%)=R*DEM (Equation 5) DIM(%)=S*DEM (Equation 6) Equations 4, 5, and 6 show how the dosing for the more homogeneous subgroups is determined and how the dosing results are expressed as a fraction of the clinician's usual heterogeneous whole group dosages. Determining “Minimal Dose Adjustment Units”
Example: The approach in the previous section leads to individualized initial drug dose recommendations for each of the 3 subgroups (extensive, poor and intermediate metabolizers). Each subgroup represents a specific number of functional alleles for the specific DME (extensive metabolizers have 2 functional, intermediate metabolizers have 1 functional and poor metabolizers have 0 functional). The resultant dosing recommendations are expressed as percentages of the clinician's usual starting dose. It is possible to investigate the effect of increasing numbers of non-functional alleles using these new dosing recommendations. For example, if DRX % is the dosing recommendation for subgroup X expressed as a percentage of the clinician's usual starting dose then the following are true: Effect of […] 1 non-functional allele=(DREM %−DRIM %)/DREM % Effect of 2 non-functional allele=(DREM %−DRPM %)/DREM % Below is a spreadsheet (Table 3) that examines this for CYP2D6, CYP2C19 and CYP2C9. […] 2C9 has 2 MDA units per non-functional allele.

CYP2D6 = details: human

1 al (effect of 1 non-functional allele) (CYP2C9) | 2 al (effect of 2 non-functional alleles) (CYP2C9) | UM (%) dosing recommendation (CYP2C9) [%] | 2 al/1 al (CYP2C9) | IM (%) dosing recommendation (CYP2C9) [%] | PM (%) dosing recommendation (CYP2C9) [%] | 1 al (effect of 1 non-functional allele) (CYP2C19) | 2 al (effect of 2 non-functional alleles) (CYP2C19) | 2 al/1 al (CYP2C19) | IM (%) dosing recommendation (CYP2C19) [%] | PM (%) dosing recommendation (CYP2C19) [%] | UM (%) dosing recommendation (CYP2C19) [%] | 1 al (effect of 1 non-functional allele) (CYP2D6) | 2 al (effect of 2 non-functional alleles) (CYP2D6) | EM (%) dosing recommendation (CYP2D6) [%] | IM (%) dosing recommendation (CYP2D6) [%] | PM (%) dosing recommendation (CYP2D6) [%] | UM (%) dosing recommendation (CYP2D6) [%] | 2 al/1 al (CYP2D6) | SMILES
0.20 | 0.65 | 100 | 3.25 | 80 | 35 |  |  |  |  |  |  |  |  |  |  |  |  |  | CC(C)n1c(/C=C/[C@@H](O)C[C@@H](O)CC(=O)O)c(-c2ccc(F)cc2)c2ccccc21 (racemic) [Lescol]
0.50 | 0.80 | 100 | 1.60 | 50 | 20 |  |  |  |  |  |  |  |  |  |  |  |  |  | CCCCc1nc(Cl)c(CO)n1Cc1ccc(-c2ccccc2-c2nn[nH]n2)cc1 [Cozaar]
 |  |  |  |  |  | 0.14 | 0.29 | 2.00 | 90 | 75 | 105 | 0.00 | 0.01 | 100 | 100 | 99 | 100 |  | CN[C@H]1CC[C@@H](c2ccc(Cl)c(Cl)c2)c2ccccc21 [sertraline]
0.58 | 0.83 | 120 | 1.43 | 60 | 20 |  |  |  |  |  |  |  |  |  |  |  |  |  | CCCNC(=O)NS(=O)(=O)c1ccc(Cl)cc1 [Diabinese]
0.30 | 0.65 | 100 | 2.17 | 70 | 35 |  |  |  |  |  |  |  |  |  |  |  |  |  | Cc1ccc(-c2cc(C(F)(F)F)nn2-c2ccc(S(N)(=O)=O)cc2)cc1 [Celebrex]
0.36 | 0.64 | 110 | 1.75 | 70 | 40 |  |  |  |  |  |  |  |  |  |  |  |  |  | O=C1NC(=O)C(c2ccccc2)(c2ccccc2)N1 [Dilantin]
 |  |  |  |  |  | 0.13 | 0.25 | 2.00 | 91 | 78 | 104 | −0.11 | −0.20 | 94 | 104 | 113 | 84 |  | CN1CCN(C2=Nc3cc(Cl)ccc3Nc3ccccc32)CC1 [clozapine]
 |  |  |  |  |  | 0.00 | 0.00 |  | 100 | 100 | 100 | 0.21 | 0.35 | 114 | 90 | 74 | 134 | 1.67 | CN1CCN2c3ccccc3Cc3ccccc3C2C1 (stereo not drawn) [mianserin]
 |  |  |  |  |  | 0.25 | 0.51 | 2.00 | 82 | 54 | 110 | −0.16 | −0.32 | 92 | 107 | 121 | 77 |  | O=C(NCCN1CCOCC1)c1ccc(Cl)cc1 [moclobemide]
0.42 | 0.83 | 120 | 2.00 | 70 | 20 |  |  |  |  |  |  |  |  |  |  |  |  |  | CCC1=C(C)CN(C(=O)NCCc2ccc(S(=O)(=O)NC(=O)N[C@H]3CC[C@H](C)CC3)cc2)C1=O [Amaryl]

SMILES | 1 al (effect of 1 non-functional allele) (CYP2C9) | 2 al (effect of 2 non-functional alleles) (CYP2C9) | UM (%) dosing recommendation (CYP2C9) [%] | 2 al/1 al (CYP2C9) | IM (%) dosing recommendation (CYP2C9) [%] | PM (%) dosing recommendation (CYP2C9) [%] | 1 al (effect of 1 non-functional allele) (CYP2C19) | 2 al (effect of 2 non-functional alleles) (CYP2C19) | 2 al/1 al (CYP2C19) | IM (%) dosing recommendation (CYP2C19) [%] | PM (%) dosing recommendation (CYP2C19) [%] | UM (%) dosing recommendation (CYP2C19) [%] | 1 al (effect of 1 non-functional allele) (CYP2D6) | 2 al (effect of 2 non-functional alleles) (CYP2D6) | EM (%) dosing recommendation (CYP2D6) [%] | IM (%) dosing recommendation (CYP2D6) [%] | PM (%) dosing recommendation (CYP2D6) [%] | UM (%) dosing recommendation (CYP2D6) [%] | 2 al/1 al (CYP2D6)
CC(=O)CC(c1ccccc1)c1c(O)c2ccccc2oc1=O (stereo not drawn) [Coumadin] | 0.62 | 0.85 | 130 | 1.38 | 50 | 20 |  |  |  |  |  |  |  |  |  |  |  |  | 
